In article PMC11470999, “Penfluridol inhibits melanoma growth and metastasis through enhancing von Hippel‒Lindau tumor suppressor‐mediated cancerous inhibitor of protein phosphatase 2A (CIP2A) degradation” (MedComm, 2024):

Columns and labels:
[1] = target: T1, CIP2A (Homo sapiens, UniProt Q8TCG1); experiment: DARTS (proteinase K, immunoblot) and cellular thermal shift assay; assay type: cell-based; conditions: A375 cells treated with PF (DARTS); melanoma cells (CETSA)
T1 construct: endogenous full-length protein in A375 human melanoma cells / lysate; 905 residues

[2] = target: T2, Hu‐CIP2A (1‐560) (Homo sapiens, UniProt Q8TCG1); experiment: isothermal titration calorimetry, one-site model; assay type: binding; conditions: read-out: dissociation constant
T2 construct: recombinant purified N-terminal armadillo repeat domain, residues 1-560 of 905
Source text: isothermal titration calorimetry, one-site model on Hu‐CIP2A (1‐560) | A strong binding affinity between PF and CIP2A protein was observed, with a dissociation constant

OC1(c2ccc(Cl)c(C(F)(F)F)c2)CCN(CCCC(c2ccc(F)cc2)c2ccc(F)cc2)CC1 [PF, Penfluridol]
DARTS (proteinase K, immunoblot) and cellular thermal shift assay [1]: PF protects CIP2A from proteinase K‐induced protein hydrolysis
Kd [2]: 7.42 µM
